The values below come from patent publication US12428370B2, “Haloallylamine dual amine oxidase inhibitors” (Syntara Limited, priority 2020, dated 2025).

Counter-ions that a name gives are not always drawn.

Data set [1] can be described thus: Pharmacokinetic study in Wistar rats, oral gavage. The data set is classed as in vivo. The conditions noted are these: oral gavage at 3 mg/kg, plasma, FIG. 1. As to the method:
Pharmacokinetic (PK) studies were carried out at Sundia MediTech Co. Ltd., Shanghai. […] At various times between 15 minutes and 8 hours, blood samples were collected by tail vein bleed. Plasma was analyzed by high performance liquid chromatography-tandem mass spectrometry using a Shimadzu LC30AD HPLC and a QTRAP 5500 mass spectrometer. The time course and basic PK parameters thus obtained are outlined in FIG. 1.

Data set [2] concerns BALB/c mice, carrageenan air pouch. The data set can be described thus: Carrageenan air pouch model. The data set is classed as in vivo. Particulars: single oral application 1 h before carrageenan, read 4 h after, vs carrageenan-treated mice, FIG. 4. As to the method: On day 0, BALB/c mice were shaved at the nape of the neck, anesthetized and 6 mL air sterile (0.2 μm, Sartorius, Cat. 16532) was injected subcutaneously using a 23G×1½ inch needle fixed to a 6 mL syringe. The injection site was sealed with flexible collodion (Macron, Cat. 4580-02). On day 3 a further 3 mL of sterile air was injected into the neck.
3% λ-carrageenan was prepared by dissolving 1.8 g λ-carrageenan (FLUKA, Cat. 22049, lot 1408463) in 60 mL hot de-ionized water. Once dissolved, the solution was cooled to room temperature and the volume made up to 60 mL with de-ionized water.
On day six, PXS-5131 in PBS (vehicle) or PBS only were administered by oral gavage to the mice. One hour after administration, mice were injected with 1 mL 3% λ-carrageenan, using a 23G×2 inch needle fitted to a 1 mL syringe, directly into the air pouch. Sham animals were administered 1 mL de-ionized water instead of λ-carrageenan solution.
Four hours after carrageenan/de-ionized water injection, the mice were anesthetized and 3 mL 10 U/mL heparinized saline was injected into the air pouch. The air pouch was gently massaged, the contents immediately removed using an 18G×1 inch needle fitted to a 5 mL syringe, and the exudate volume recorded. An aliquot of the exudate taken for total white blood cell counting; a second aliquot of the exudate was taken for differential white blood cell counts.

For data set [3], the system named is cytochrome P450 (1A2, 2B6, 2C8, 2C9, 2C19, 2D6, 3A4); 44 enzymes, receptors, ion channels and transporters; 13 common transporters; 7 cardiac ion channel …. The data set can be described thus: Off-target profile (cytochrome P450, Safety Screen panel, Transporter panel, Cardiac Ion Channel panel). The conditions noted are these: all assays: CYP at 30 μM, panels at 10 μM, cardiac ion channels up to 300 μM. As to the method: Assessment of the off-target profile of Compound 1 using standardized commercially available methods (available through contract research organizations such as Eurofins Panlabs Inc, (https://www.eurofinsdiscoveryservices.com/services/in-vitro-assays/) or Evotec SE, (https://www.evotec.com/en/execute/integrated-pre-clinical-development/adme)).
The potential for off-target promiscuity in vivo was evaluated in vitro using the following assays:
Inhibition of cytochrome P450 activity (30 μM single concentration; 1A2, 2B6, 2C8, 2C9, 2C19, 2D6, 3A4)
Eurofins Discovery Safety Screen panel of 44 enzymes, receptors, ion channels and transporters (percentage inhibition at 10 μMconcentration).
Eurofins Transporter Protein Screen panel of 13 common transporters (percentage inhibition at 10 μM concentration).
Aptuit Cardiac Ion Channel panel of 7 targets (automated patch clamp assay; concentration 0 up to 300 μM).

Regarding `NC/C(=C\F)C1Cc2ccccc2O1` (single isomer, unassigned; (-)) [PXS-5131, (−)-(E)-2-(2,3-Dihydrobenzofuran-2-Yl)-3-Fluoroprop-2-En-1-Amine Hydrochloride], the pharmacokinetic profile result in data set [1] was “inferior to Compound 1”. For the same molecule, in data set [2], the “exudate volume in the air pouch” value is “decrease” and the “neutrophil count in the air pouch” value is recorded as “decrease”.
As for `N#Cc1ccc(OC/C(=C/F)CN)cc1` [Compound 1, (E)-4-((2-(aminomethyl)-3-fluoroallyl)oxy) benzonitrile], the off-target profile result in data set [3] is reported as “favorable off-target profile”.
